Results taken from the supplement of paper PMC5908809.

Key:
[1] = system: normal NK cells expanded with K562-aAPC; assay: percent inhibition of viability; higher = more inhibition; details: 72 h, IL-2 2.5 ng/mL
Method: (§1)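 Drug sensitivity and resistance testing on K562-aAPC-expanded normal NK cells: 5 concentrations (10-fold steps over a 10,000-fold range), 72 h at 37 °C, viability by CellTiter-Glo normalised to DMSO and benzethonium chloride controls; DSS from the fitted curve.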

[2] = system: normal NK cells expanded with K562-aAPC; assay: drug sensitivity score (DSS) (DSS units); higher = more sensitive; extreme values may be limits of the assay; details: 72 h; IL-2 2.5 ng/mL
Method: as §1

NK-92 (IL-2 2.5 ng/mL) [3] = assay: percent inhibition of viability; higher = more inhibition; details: 72 h
KAI3 (IL-2 2.5 ng/mL) [4] = assay: as above; details: 72 h
NKL (IL-2 2.5 ng/mL) [5] = assay: as above; details: 72 h
NK-YS (IL-2 2.5 ng/mL) [6] = assay: as above; details: 72 h
SNK-6 (IL-2 2.5 ng/mL) [7] = assay: as above; details: 72 h
YT (IL-2 2.5 ng/mL) [8] = assay: as above; details: 72 h
[9] = system: normal primary NK cells, pool 1 (3 donors), resting (IL-2 0 ng/mL); assay: as above; details: 72 h
IMC-1 (IL-2 20 ng/mL) [10] = assay: as above; details: 72 h
DERL-7 (IL-2 2.5 ng/mL) [11] = assay: as above; details: 72 h
[12] = system: normal primary NK cells, pool 1 (3 donors) (IL-2 2.5 ng/mL); assay: as above; details: 72 h
[13] = system: normal primary NK cells, pool 3 (3 donors) (IL-2 2.5 ng/mL); assay: as above; details: 72 h
KHYG-1 (IL-2 2.5 ng/mL) [14] = assay: as above; details: 72 h
[15] = system: normal primary NK cells, pool 2 (3 donors) (IL-2 2.5 ng/mL); assay: as above; details: 72 h
NK-92 (IL-2 2.5 ng/mL) [16] = assay: drug sensitivity score (DSS) (DSS units); higher = more sensitive; extreme values may be limits of the assay; details: 72 h
KAI3 (IL-2 2.5 ng/mL) [17] = assay: as above; details: 72 h
NKL (IL-2 2.5 ng/mL) [18] = assay: as above; details: 72 h
NK-YS (IL-2 2.5 ng/mL) [19] = assay: as above; details: 72 h
SNK-6 (IL-2 2.5 ng/mL) [20] = assay: as above; details: 72 h
YT (IL-2 2.5 ng/mL) [21] = assay: as above; details: 72 h
[22] = system: normal primary NK cells, pool 1 (3 donors), resting (IL-2 0 ng/mL); assay: as above; details: 72 h
IMC-1 (IL-2 20 ng/mL) [23] = assay: as above; details: 72 h
DERL-7 (IL-2 2.5 ng/mL) [24] = assay: as above; details: 72 h
[25] = system: normal primary NK cells, pool 1 (3 donors) (IL-2 2.5 ng/mL); assay: as above; details: 72 h
[26] = system: normal primary NK cells, pool 3 (3 donors) (IL-2 2.5 ng/mL); assay: as above; details: 72 h
KHYG-1 (IL-2 2.5 ng/mL) [27] = assay: as above; details: 72 h
[28] = system: normal primary NK cells, pool 2 (3 donors) (IL-2 2.5 ng/mL); assay: as above; details: 72 h

Cc1cc(Nc2ncc(Cl)c(Nc3ccccc3S(=O)(=O)C(C)C)n2)c(OC(C)C)cc1C1CCNCC1 [Ceritinib] (max concentration tested 2500 nM)
percent inhibition of viability [%]
Details	0.25 nM	2.5 nM	25 nM	250 nM	2500 nM
DERL-7 (IL-2 2.5 ng/mL) [11]	3.63	5.92	-4.52	1.56	21.8
IMC-1 (IL-2 20 ng/mL) [10]	-2.25	-2.84	-3.12	-7.73	-4.42
KAI3 (IL-2 2.5 ng/mL) [4]	0.47	4.56	-2.83	3.89	7.4
KHYG-1 (IL-2 2.5 ng/mL) [14]	0.86	-4.67	-2.14	-5.38	-4.91
NK-92 (IL-2 2.5 ng/mL) [3]	7.74	-3.66	-9.06	-14.7	-17.8
NK-YS (IL-2 2.5 ng/mL) [6]	-0.73	-3.11	-3.16	-7.84	-1.32
NKL (IL-2 2.5 ng/mL) [5]	-3.75	-12.6	-15.7	-9.51	-1.79
SNK-6 (IL-2 2.5 ng/mL) [7]	10.1	11.8	6.18	-2.76	-12.8
YT (IL-2 2.5 ng/mL) [8]	2.57	-0.77	-0.72	-2.37	3.15
[1]	-2.81	-5.61	-7.59	-0.13	-2.11
[9]	-7.32	-13.8	7.94	12	69
[12]	-2.74	-3.9	0.34	4.28	50.2
[13]	-5.64	-4.98	-6.68	-5.81	0.68
[15]	-8.08	-2.52	-12.5	-0.57	15.4

Details	drug sensitivity score
DERL-7 (IL-2 2.5 ng/mL) [24]	0.92
IMC-1 (IL-2 20 ng/mL) [23]	0.89
KAI3 (IL-2 2.5 ng/mL) [17]	0
KHYG-1 (IL-2 2.5 ng/mL) [27]	0
NK-92 (IL-2 2.5 ng/mL) [16]	0
NK-YS (IL-2 2.5 ng/mL) [19]	0.89
NKL (IL-2 2.5 ng/mL) [18]	0.89
SNK-6 (IL-2 2.5 ng/mL) [20]	0
YT (IL-2 2.5 ng/mL) [21]	0
[2]	0.89
[22]	5.8
[25]	3.33
[26]	0
[28]	0.23

COc1ccc(-c2ccc3c(N4CCOC[C@@H]4C)nc(N4CCOC[C@@H]4C)nc3n2)cc1CO [AZD8055] (max concentration tested 10000 nM)
percent inhibition of viability [%]
Details	1 nM	10 nM	100 nM	1000 nM	10000 nM
DERL-7 (IL-2 2.5 ng/mL) [11]	0.54	34.1	65.8	86.8	88.3
IMC-1 (IL-2 20 ng/mL) [10]	1.04	-9.13	-36.4	1.86	16.9
KAI3 (IL-2 2.5 ng/mL) [4]	16.4	25.7	50.1	58.8	60.9
KHYG-1 (IL-2 2.5 ng/mL) [14]	3.41	7.07	30.4	82.5	82.6
NK-92 (IL-2 2.5 ng/mL) [3]	8.5	22.1	48.4	64.4	97.2
NK-YS (IL-2 2.5 ng/mL) [6]	4.19	9.89	45.4	66.8	78.2
NKL (IL-2 2.5 ng/mL) [5]	9.88	42.8	61.2	63.9	61.8
SNK-6 (IL-2 2.5 ng/mL) [7]	-1.89	12.4	53.8	54.5	54.5
YT (IL-2 2.5 ng/mL) [8]	7.4	12.9	43.8	56.6	68.3
[1]	6.73	19.9	29.3	42.1	41.3
[9]	-13.5	-7.65	-3.85	9.37	-4.87
[12]	-5.65	6.16	8.42	38.2	29.2
[13]	-5.43	8.78	9.67	14.1	16.9
[15]	-5.63	5.36	15.5	20	22.5

Details	drug sensitivity score
DERL-7 (IL-2 2.5 ng/mL) [24]	27.5
IMC-1 (IL-2 20 ng/mL) [23]	0.56
KAI3 (IL-2 2.5 ng/mL) [17]	20.6
KHYG-1 (IL-2 2.5 ng/mL) [27]	18.6
NK-92 (IL-2 2.5 ng/mL) [16]	20.7
NK-YS (IL-2 2.5 ng/mL) [19]	18.9
NKL (IL-2 2.5 ng/mL) [18]	25.5
SNK-6 (IL-2 2.5 ng/mL) [20]	19.1
YT (IL-2 2.5 ng/mL) [21]	17.3
[2]	12.8
[22]	0
[25]	8.04
[26]	2.13
[28]	4.67

CCCCCOC(=O)Nc1nc(=O)n([C@@H]2O[C@H](C)[C@@H](O)[C@H]2O)cc1F [Capecitabine] (max concentration tested 10000 nM)
percent inhibition of viability [%]
Details	1 nM	10 nM	100 nM	1000 nM	10000 nM
DERL-7 (IL-2 2.5 ng/mL) [11]	0.46	4.42	-2.34	4.15	52.2
IMC-1 (IL-2 20 ng/mL) [10]	-3.3	-4.34	-6.24	-6.22	-8.14
KAI3 (IL-2 2.5 ng/mL) [4]	1.53	10.3	11	18.4	51.4
KHYG-1 (IL-2 2.5 ng/mL) [14]	-4.65	-8.98	-2.6	-4.39	-2.75
NK-92 (IL-2 2.5 ng/mL) [3]	-10.2	1.4	2.48	-3.88	10.2
NK-YS (IL-2 2.5 ng/mL) [6]	-5.86	-8.43	-2.42	-0.04	39
NKL (IL-2 2.5 ng/mL) [5]	-14.2	-5.91	-4.8	5.16	-0.14
SNK-6 (IL-2 2.5 ng/mL) [7]	12	11.5	0.05	16.4	72.5
YT (IL-2 2.5 ng/mL) [8]	-3.7	-7.15	-2.55	-0.84	48.6
[1]	-1.3	3.24	-1.87	-1.09	-2.22
[9]	-8.89	-7.83	13.7	10.2	11
[12]	-11.1	-11.6	0.78	-4.13	-5.4
[13]	0.26	5.64	1.92	7.05	2.46
[15]	-2.47	1.21	-0.29	-0.41	-2.27

Details	drug sensitivity score
DERL-7 (IL-2 2.5 ng/mL) [24]	3.42
IMC-1 (IL-2 20 ng/mL) [23]	0
KAI3 (IL-2 2.5 ng/mL) [17]	4.96
KHYG-1 (IL-2 2.5 ng/mL) [27]	0
NK-92 (IL-2 2.5 ng/mL) [16]	0
NK-YS (IL-2 2.5 ng/mL) [19]	1.92
NKL (IL-2 2.5 ng/mL) [18]	0
SNK-6 (IL-2 2.5 ng/mL) [20]	6.62
YT (IL-2 2.5 ng/mL) [21]	2.47
[2]	0
[22]	1.76
[25]	0
[26]	0
[28]	0
